From publication PMC4981717, “Lcp1 Is a Phosphotransferase Responsible for Ligating Arabinogalactan to Peptidoglycan in Mycobacterium tuberculosis” (mBio, 2016) come the findings set out here.

The target in the assay is ^MtbLcp1 (Mycobacterium tuberculosis, UniProt P96872). In words: Intrinsic tryptophan fluorescence (ITF) ligand binding of linker unit analogues to recombinant ^MtbLcp1. To be noted: for Bmax: ITF saturation binding, change in fluorescence emission at λ = 341 nm; for Kd: ITF, single-site saturation model, 25°C, 0.026 µM ^MtbLcp1, λ = 341 nm, read-out: equilibrium dissociation constant, KD. The procedure: Intrinsic tryptophan fluorescence (ITF) ligand binding experiments of ^MtbLcp1 with saccharide ligands were conducted on a Hitachi F7000 fluorescence spectrophotometer with the temperature thermostatically regulated to 25°C. ^MtbLcp1 was diluted to 0.026 µM with dialysis buffer, and fluorescence spectra were measured at an excitation wavelength of 280 nm and emission wavelength of 300 to 400 nm with an excitation and emission slit width of 5 nm using a 500-µl crystal cuvette. ITF maximum (Femission^max) was recorded at λ = 341 nm, providing a basal Femission coordinate for the collection of subsequent ITF data. Increasing concentrations of ligands representing the linker unit (compounds 1 to 4) were added to the cuvette. The change in fluorescence emission (ΔFemission) was calculated by subtracting Femission (recorded 2 min after each ligand addition) from Femission^max. Changes of background fluorescence observed upon addition of equivalent volumes of dialysis buffer (the solvent in which compounds 1 to 4 were dissolved) were subtracted from the overall change in fluorescence, and the data were then plotted against ligand concentration, [L] (3 independent biological experiments). A plot of ΔFemission at λ = 341 nm versus [L] was fitted to a one-site specific binding equation using GraphPad Prism 5 software: ΔFemission = Fmax × [L]/(KD + [L]).

Values joined by “and” are separate entries in the source; they are usually repeats but may differ in a detail not shown here. Equal values may be shown once. “Also recorded” adds a separate entry of the source.

Chain of ^MtbLcp1 (P96872 entry or part of it): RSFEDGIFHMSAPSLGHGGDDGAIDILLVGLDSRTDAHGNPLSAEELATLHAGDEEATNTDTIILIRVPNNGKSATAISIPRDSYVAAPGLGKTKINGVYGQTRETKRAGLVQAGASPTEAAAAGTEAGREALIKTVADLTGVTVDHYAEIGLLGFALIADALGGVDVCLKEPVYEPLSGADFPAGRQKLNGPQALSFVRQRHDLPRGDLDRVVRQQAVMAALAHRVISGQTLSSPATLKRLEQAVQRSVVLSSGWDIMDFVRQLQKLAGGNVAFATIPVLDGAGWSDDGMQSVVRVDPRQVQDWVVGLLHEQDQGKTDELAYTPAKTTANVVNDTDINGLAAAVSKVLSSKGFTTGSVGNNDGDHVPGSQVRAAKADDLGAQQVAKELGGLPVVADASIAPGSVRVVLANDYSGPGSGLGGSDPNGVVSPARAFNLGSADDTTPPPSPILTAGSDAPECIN

A word on the Kd: it is the constant that tells how readily two partners part at equilibrium. `CCCCCCCCO[C@H]1O[C@H](CO)[C@@H](O)[C@H](O[C@@H]2O[C@@H](C)[C@H](O)[C@@H](O)[C@H]2O)[C@H]1NC(C)=O` [compound 1, octyl α-L-rhamnopyranosyl-(1→3)-2-acetamido-2-deoxy-α-D-glucopyranoside]: the Bmax is reported as 1448 and the Kd came to 57.7 µM.
On to `CCCCCCCCOC1OC(CO)C(O)C(OC2OC(C)C(OC3OC(C(CO)OC4OC(C(O)CO)C(O)C4O)C(O)C3O)C(O)C2O)C1NC(C)=O` [compound 2, octyl-β-D-galactofuranosyl-(1→5)-β-D-galactofuranosyl-(1→4)-α-L-rhamnopyranosyl-(1→3)-2-acetamido-2-deoxy-α-D-glucopyranoside], for which the Bmax is given as 1585 and the Kd came out at 5.13 µM. The “fold increase in affinity” value (tetrasaccharide ligand versus linker unit disaccharide (compound 1)) is listed as ~ 10 fold.
On to `CCCCCCCCOC1OC(CO)C(O)C(OC2OC(C)C(OC3OC(C(CO)OC4OC(C(O)COC5OC(C(O)CO)C(O)C5O)C(O)C4O)C(O)C3O)C(O)C2O)C1NC(C)=O` [compound 3, octyl-β-D-galactofuranosyl-(1→6)-β-D-galactofuranosyl-(1→5)-β-D-galactofuranosyl-(1→4)-α-L-rhamnopyranosyl-(1→3)-2-acetamido-2-deoxy-α-D-glucopyranoside], for which the Bmax amounted to 1498 and the Kd was 20.4 µM. Further, the “fold decrease in binding affinity” value (additional Galf residue, versus compound 2) stood at 4 fold.
`CCCCCCCCOC1OC(C)C(OC2OC(C(O)CO)C(O)C2O)C(O)C1O` [compound 4, D-Galf-β(1→4)-L-Rhap]: the Bmax was 177 and ~ 177.6; the dissociation constant Kd is 97.6 µM and ~97.6 µM. Also, under “ITF assays, above background fluorescence”, the “binding affinity toward ^MtbLcp1 in words” value is “no significant binding affinity (above background); also recorded: no recordable affinity”.
